Values quoted from earlier work as cited in patent publication US7928112B2, “Substituted 5,6,7,8-tetrahydropyrido[4,3-D]pyrimidines as dipeptidyl peptidase-IV inhibitors for the treatment or prevention of diabetes” (Merck Sharp & Dohme Corp., priority 2006, dated 2011).

Columns and labels:
[1] = biological target: T1, DPP-4 (Rattus norvegicus, UniProt P14740); settings: rats; survival doubled from day 7 to day 14
T1 construct: host or cells: rats (in vivo)

[2] = biological target: T2, DPP-4 (Mus musculus, UniProt P28843); settings: cyclophosphamide-induced neutropenia
T2 construct: host or cells: mouse (in vivo)

[3] = biological target: T3, DPP-4 (Homo sapiens, UniProt P27487)
T3 construct: GRF is rapidly degraded in plasma to GRF[3-44]; from tissue; host or cells: plasma
T3 sequence (P27487 39-766 limits assumed, species assumed): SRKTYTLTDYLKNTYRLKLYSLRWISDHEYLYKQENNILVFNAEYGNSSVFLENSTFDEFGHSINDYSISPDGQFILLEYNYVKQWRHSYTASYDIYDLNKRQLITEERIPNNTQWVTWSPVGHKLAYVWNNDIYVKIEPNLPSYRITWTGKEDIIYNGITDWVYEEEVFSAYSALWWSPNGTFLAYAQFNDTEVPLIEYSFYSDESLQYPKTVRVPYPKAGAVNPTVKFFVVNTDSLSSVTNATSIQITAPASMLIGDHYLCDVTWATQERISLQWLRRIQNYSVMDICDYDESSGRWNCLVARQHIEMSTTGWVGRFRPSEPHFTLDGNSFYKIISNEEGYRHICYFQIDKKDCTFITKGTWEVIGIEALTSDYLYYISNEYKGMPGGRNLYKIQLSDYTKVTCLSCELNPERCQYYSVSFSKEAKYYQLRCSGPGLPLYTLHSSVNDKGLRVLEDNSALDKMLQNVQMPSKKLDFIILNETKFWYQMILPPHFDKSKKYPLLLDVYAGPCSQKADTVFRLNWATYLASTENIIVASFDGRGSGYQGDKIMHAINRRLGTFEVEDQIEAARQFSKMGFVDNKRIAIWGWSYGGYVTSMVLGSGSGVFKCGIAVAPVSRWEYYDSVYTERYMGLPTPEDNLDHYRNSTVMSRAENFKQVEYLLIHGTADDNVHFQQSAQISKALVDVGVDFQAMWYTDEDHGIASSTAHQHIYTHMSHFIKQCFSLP

T1 sequence (P14740 whole entry): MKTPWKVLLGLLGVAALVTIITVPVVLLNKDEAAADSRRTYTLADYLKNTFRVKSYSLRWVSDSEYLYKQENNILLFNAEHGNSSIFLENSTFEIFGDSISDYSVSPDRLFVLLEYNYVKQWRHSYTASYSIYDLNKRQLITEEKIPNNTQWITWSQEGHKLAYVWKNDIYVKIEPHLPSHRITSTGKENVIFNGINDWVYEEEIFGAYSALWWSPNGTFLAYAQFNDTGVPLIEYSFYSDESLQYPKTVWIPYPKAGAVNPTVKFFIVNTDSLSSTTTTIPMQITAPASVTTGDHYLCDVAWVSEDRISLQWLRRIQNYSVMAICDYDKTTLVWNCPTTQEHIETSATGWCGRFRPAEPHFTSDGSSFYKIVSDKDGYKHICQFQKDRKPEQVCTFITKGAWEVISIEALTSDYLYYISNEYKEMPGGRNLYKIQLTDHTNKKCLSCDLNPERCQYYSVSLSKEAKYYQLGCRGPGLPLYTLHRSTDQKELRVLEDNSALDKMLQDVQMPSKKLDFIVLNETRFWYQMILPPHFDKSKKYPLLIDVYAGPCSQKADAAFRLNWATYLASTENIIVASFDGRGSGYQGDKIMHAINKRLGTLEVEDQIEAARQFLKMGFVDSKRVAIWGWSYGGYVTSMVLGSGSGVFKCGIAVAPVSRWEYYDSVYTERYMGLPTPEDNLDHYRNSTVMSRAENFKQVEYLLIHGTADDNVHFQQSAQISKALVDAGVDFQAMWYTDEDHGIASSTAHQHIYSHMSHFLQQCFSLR
T2 sequence (P28843 whole entry): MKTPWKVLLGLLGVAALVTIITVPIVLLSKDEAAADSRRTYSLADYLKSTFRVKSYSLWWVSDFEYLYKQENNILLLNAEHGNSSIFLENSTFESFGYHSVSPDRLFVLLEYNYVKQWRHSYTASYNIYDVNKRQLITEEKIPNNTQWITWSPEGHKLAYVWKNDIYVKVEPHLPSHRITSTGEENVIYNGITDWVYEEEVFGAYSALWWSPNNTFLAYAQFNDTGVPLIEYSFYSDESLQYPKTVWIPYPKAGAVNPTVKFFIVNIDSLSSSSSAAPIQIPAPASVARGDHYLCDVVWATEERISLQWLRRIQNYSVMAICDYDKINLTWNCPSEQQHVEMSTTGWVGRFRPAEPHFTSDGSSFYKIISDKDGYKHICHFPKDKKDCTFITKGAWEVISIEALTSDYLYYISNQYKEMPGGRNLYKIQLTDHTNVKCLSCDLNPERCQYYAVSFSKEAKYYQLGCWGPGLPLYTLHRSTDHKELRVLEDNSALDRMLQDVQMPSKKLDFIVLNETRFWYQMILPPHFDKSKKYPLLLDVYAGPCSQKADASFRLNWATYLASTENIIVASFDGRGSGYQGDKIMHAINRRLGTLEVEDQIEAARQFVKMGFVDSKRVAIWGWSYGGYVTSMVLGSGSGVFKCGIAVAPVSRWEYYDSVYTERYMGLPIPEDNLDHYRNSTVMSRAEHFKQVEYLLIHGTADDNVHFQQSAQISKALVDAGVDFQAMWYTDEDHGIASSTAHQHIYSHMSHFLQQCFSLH

CC(C)N1CCC(c2ccccc2)(c2ccccc2)CC1 [Prodipine, Pro-Pro-diphenyl-phosphonate]
cardiac allograft survival [1]: 14 day

CC(C)[C@H](N)C(=O)N1CCC[C@H]1B(O)O [Val-Boro-Pro]
hematopoiesis [2]: stimulated hematopoiesis

CC[C@H](C)[C@H](N)C(=O)N1CCC[C@H]1C(=O)N[C@H](C(=O)O)[C@@H](C)CC [diprotin A]
degradation of GRF to GRF[3-44] in plasma [3]: prevented
